Measurements taken from the CheMixHub viscosity set.
“And” between values parts separate entries of the source, which are not always exact repeats. Equal entries are not always repeated.

Assay: xn = mol fraction of the nth substance listed

CC(Cl)(Cl)Cl + CC(C)=O
298.15 K, 101.33 kPa
Settings | viscosity [mPa·s]
x1 = 0.102 | 0.3356
x1 = 0.2 | 0.3677
x1 = 0.302 | 0.4042
x1 = 0.401 | 0.4432
x1 = 0.501 | 0.4862
x1 = 0.549 | 0.5085
x1 = 0.551 | 0.5098
x1 = 0.601 | 0.5341
x1 = 0.649 | 0.5591
x1 = 0.651 | 0.56
x1 = 0.701 | 0.5875
x1 = 0.75 | 0.6158
x1 = 0.794 | 0.6443
x1 = 0.852 | 0.6824

O=CO + CC(C)=O
viscosity [mPa·s], 101 kPa
Settings | x1 = 0.1014 | x1 = 0.2068 | x1 = 0.299 | x1 = 0.4009 | x1 = 0.4945 | x1 = 0.6083 | x1 = 0.6998 | x1 = 0.8014 | x1 = 0.8947
298.15 K | 0.3575 | 0.4002 | 0.4482 | 0.5192 | 0.5972 | 0.7312 | 0.8622 | 1.053 | 1.287
308.15 K | 0.3251 | 0.3639 | 0.4063 | 0.4659 | 0.5315 | 0.642 | 0.7455 | 0.906 | 1.079
318.15 K | 0.2954 | 0.3287 | 0.3657 | 0.4163 | 0.4726 | 0.5609 | 0.6457 | 0.7719 | 0.9139

CC(Cl)(Cl)Cl + CC(C)CCO
298.15 K, 101 kPa
Settings | viscosity [mPa·s]
x1 = 0.113 | 3.084
x1 = 0.1681 | 2.72
x1 = 0.3013 | 2.01
x1 = 0.3885 | 1.663
x1 = 0.509 | 1.339
x1 = 0.5929 | 1.169
x1 = 0.692 | 1.035
x1 = 0.7926 | 0.913
x1 = 0.8991 | 0.817

O=C(O)CC(O)(CC(=O)O)C(=O)O + CC(O)CO
101.3 kPa, x1 = 0.333
Settings | viscosity [mPa·s]
298 K | 2188
323 K | 571

CC(Cl)(Cl)Cl + CCC(C)=O
298.15 K, 101.33 kPa
Settings | viscosity [mPa·s]
x1 = 0.098 | 0.4094
x1 = 0.201 | 0.438
x1 = 0.299 | 0.4678
x1 = 0.398 | 0.5001
x1 = 0.499 | 0.5361
x1 = 0.6 | 0.5757
x1 = 0.7 | 0.6196
x1 = 0.8 | 0.669
x1 = 0.9 | 0.7256

CC/C(C)=N/O + CCC(C)=O
viscosity [mPa·s], 101.3 kPa
Settings | x1 = 0.0846 | x1 = 0.1716 | x1 = 0.2627 | x1 = 0.3557 | x1 = 0.4528 | x1 = 0.5541 | x1 = 0.6588 | x1 = 0.768 | x1 = 0.8817
293.15 K | 0.459 | 0.533 | 0.625 | 0.759 | 0.922 | 1.162 | 1.511 | 2.066 | 3.035
298.15 K | 0.438 | 0.508 | 0.592 | 0.714 | 0.86 | 1.073 | 1.368 | 1.836 | 2.619
303.15 K | 0.416 | 0.479 | 0.558 | 0.667 | 0.802 | 0.987 | 1.249 | 1.655 | 2.306

O=CO + CCC(C)=O
viscosity [mPa·s], 101 kPa
Settings | x1 = 0.1013 | x1 = 0.2006 | x1 = 0.3007 | x1 = 0.3962 | x1 = 0.4985 | x1 = 0.602 | x1 = 0.7014 | x1 = 0.7972 | x1 = 0.9011
298.15 K | 0.4271 | 0.4706 | 0.5282 | 0.5841 | 0.6726 | 0.7807 | 0.9125 | 1.078 | 1.309
308.15 K | 0.3863 | 0.4247 | 0.4703 | 0.5186 | 0.5915 | 0.6799 | 0.787 | 0.9165 | 1.095
318.15 K | 0.3479 | 0.3801 | 0.4183 | 0.458 | 0.5195 | 0.5896 | 0.6771 | 0.7866 | 0.9246

CC(Cl)(Cl)Cl + CCC(C)O
298.15 K, 101 kPa
Settings | viscosity [mPa·s]
x1 = 0.099 | 2.21
x1 = 0.2079 | 1.726
x1 = 0.2768 | 1.46
x1 = 0.3656 | 1.225
x1 = 0.5119 | 1.008
x1 = 0.5786 | 0.94
x1 = 0.6988 | 0.85
x1 = 0.78 | 0.808
x1 = 0.8911 | 0.781

O=CO + CCCC(C)=O
viscosity [mPa·s], 101 kPa
Settings | x1 = 0.1002 | x1 = 0.1998 | x1 = 0.3016 | x1 = 0.3992 | x1 = 0.4881 | x1 = 0.5974 | x1 = 0.7186 | x1 = 0.8392 | x1 = 0.8701
298.15 K | 0.5043 | 0.5479 | 0.6037 | 0.6689 | 0.7348 | 0.8418 | 1.003 | 1.198 | 1.262
308.15 K | 0.4519 | 0.4876 | 0.5327 | 0.586 | 0.6424 | 0.7294 | 0.8532 | 1.011 | 1.058
318.15 K | 0.4015 | 0.4344 | 0.4713 | 0.5146 | 0.5589 | 0.6331 | 0.7325 | 0.8607 | 0.8982

CC(Cl)(Cl)Cl + CCCCCC
303.15 K, 101 kPa
Settings | viscosity [mPa·s]
x1 = 0.1033 | 0.3166
x1 = 0.2726 | 0.3777
x1 = 0.3375 | 0.4016
x1 = 0.4011 | 0.4253
x1 = 0.5547 | 0.4864
x1 = 0.5981 | 0.5047
x1 = 0.6578 | 0.5318
x1 = 0.7595 | 0.582
x1 = 0.8388 | 0.6246
x1 = 0.9378 | 0.6833

CC/C(C)=N/O + CCCCCC
viscosity [mPa·s], 101.3 kPa
Settings | x1 = 0.0993 | x1 = 0.1991 | x1 = 0.2977 | x1 = 0.3987 | x1 = 0.4972 | x1 = 0.5993 | x1 = 0.6977 | x1 = 0.7981 | x1 = 0.899
293.15 K | 0.345 | 0.393 | 0.461 | 0.556 | 0.69 | 0.899 | 1.213 | 1.729 | 2.695
298.15 K | 0.33 | 0.376 | 0.437 | 0.526 | 0.646 | 0.835 | 1.111 | 1.559 | 2.357
303.15 K | 0.315 | 0.357 | 0.414 | 0.495 | 0.605 | 0.776 | 1.019 | 1.411 | 2.09

CC(Cl)(Cl)Cl + CCCCCCC
303.15 K, 101 kPa
Settings | viscosity [mPa·s]
x1 = 0.138 | 0.3932
x1 = 0.2468 | 0.4161
x1 = 0.355 | 0.442
x1 = 0.4494 | 0.4689
x1 = 0.5571 | 0.5061
x1 = 0.6233 | 0.5327
x1 = 0.7095 | 0.5716
x1 = 0.7857 | 0.6088
x1 = 0.8262 | 0.63
x1 = 0.9288 | 0.6849

CC(Cl)(Cl)Cl + CCCCCCCC
303.15 K, 101 kPa
Settings | viscosity [mPa·s]
x1 = 0.1465 | 0.4786
x1 = 0.2573 | 0.4863
x1 = 0.3398 | 0.495
x1 = 0.4029 | 0.503
x1 = 0.4971 | 0.5195
x1 = 0.588 | 0.5408
x1 = 0.6617 | 0.5623
x1 = 0.7875 | 0.6103
x1 = 0.8238 | 0.6267
x1 = 0.9164 | 0.6735

CC(C)C1CCCCC1 + CCCCCCCCCCCCC
viscosity [mPa·s], 100 kPa
Settings | x1 = 0.1077 | x1 = 0.1971 | x1 = 0.3025 | x1 = 0.3985 | x1 = 0.5016 | x1 = 0.5996 | x1 = 0.695 | x1 = 0.799 | x1 = 0.8956
293.15 K | 1.773 | 1.7 | 1.619 | 1.549 | 1.473 | 1.4 | 1.328 | 1.253 | 1.18
298.15 K | 1.615 | 1.551 | 1.48 | 1.419 | 1.351 | 1.287 | 1.224 | 1.158 | 1.094
303.15 K | 1.476 | 1.421 | 1.358 | 1.304 | 1.245 | 1.188 | 1.134 | 1.075 | 1.017
308.15 K | 1.356 | 1.308 | 1.253 | 1.205 | 1.153 | 1.103 | 1.055 | 1.003 | 0.95
313.15 K | 1.251 | 1.209 | 1.16 | 1.118 | 1.072 | 1.028 | 0.984 | 0.938 | 0.889
318.15 K | 1.16 | 1.123 | 1.078 | 1.041 | 1 | 0.961 | 0.922 | 0.88 | 0.836
323.15 K | 1.078 | 1.045 | 1.005 | 0.972 | 0.935 | 0.9 | 0.865 | 0.827 | 0.787

CCCCCCCCCCCCCCCC[N+](C)(C)CCOCCO.Cc1cc(Cl)ccc1OCC(=O)[O-] + CCCCCCCCCCCCCCCC[N+](C)(C)CCOCCO.Cc1cc(Cl)ccc1O[C@H](C)C(=O)[O-]
100 kPa, x1 = 0.58
Settings | viscosity
293.15 K | 4543 mPa·s and 4543 mPa·s
303.15 K | 1909 mPa·s
313.15 K | 928.5 mPa·s
323.15 K | 493.4 mPa·s

CC(Cl)(Cl)Cl + CCCCCCCO
303.15 K, 101 kPa
Settings | viscosity [mPa·s]
x2 = 0.1177 | 0.974
x2 = 0.2075 | 1.143
x2 = 0.4385 | 1.666
x2 = 0.5262 | 1.941
x2 = 0.5911 | 2.186
x2 = 0.6407 | 2.407
x2 = 0.7497 | 2.99
x2 = 0.8365 | 3.56
x2 = 0.9206 | 4.198

CC(Cl)(Cl)Cl + CCCCCCO
298.15 K, 101.33 kPa
Settings | viscosity [mPa·s]
x1 = 0.101 | 3.824
x1 = 0.2 | 3.188
x1 = 0.301 | 2.631
x1 = 0.402 | 2.142
x1 = 0.502 | 1.744
x1 = 0.601 | 1.43
x1 = 0.701 | 1.188
x1 = 0.8 | 1.002

CC(Cl)(Cl)Cl + CCCCCOC(C)=O
303.15 K, 101.3 kPa
Settings | viscosity [mPa·s]
x2 = 0.104 | 0.7366
x2 = 0.1989 | 0.7441
x2 = 0.2995 | 0.7518
x2 = 0.4018 | 0.7568
x2 = 0.5014 | 0.7653
x2 = 0.5996 | 0.7667
x2 = 0.6961 | 0.7663
x2 = 0.7935 | 0.7658
x2 = 0.8993 | 0.7589
